According to patent US20200246365A1, “COMPOUNDS, PHARMACEUTICAL COMPOSITIONS AND USE THEREOF AS INHIBITORS OF RAN GTPASE” (THE ROYAL INSTITUTION FOR THE ADVANCEMENT OF LEARNING / …, priority 2017, published 2020):

Assays:
[1] = test system: TOV112D cells; test: Clonogenic survival assay, TOV112D; type: cell-based, human; conditions: Homo sapiens, TOV112D; read-out: IC50 value for the TOV112D cell line by clonogenic assay
Protocol: (§1) The human EOC cell lines used (TOV81D, TOV112D, OV90, TOV21G, OV866(2), TOV1369(R), OV1369(R2), TOV1946, OV1946, TOV2295(R), OV4485) were derived in our laboratory from patients' tumors (TOV) or ascites (OV). All EOC cell lines were maintained in a low oxygen condition of 7% O2 and 5% CO2 and grown in OSE medium (Wisent, Montreal, QC) supplemented with 10% FBS (Wisent), 0.5 μg/mL amphotericin B (Wisent) and 50 μg/mL gentamicin (Life Technologies Inc., Burlington, ON). The human retinal epithelial cell line ARPE-19 was purchased from American Type Culture Collection (ATCC, Manassas, Va.) and maintained in DMEM-F12 (Wisent) supplemented with 10% FBS (Wisent), 0.5 μg/mL amphotericin B (Wisent) and 50 μg/mL gentamicin (Life Technologies Inc.).
Clonogenic assays were performed as previously described. Colonies were counted under a stereo microscope and reported as percent of control. IC50 values were determined using Graph Pad Prism 5 software (GraphPad Software Inc., San Diego, Calif.). Each experiment was performed in duplicate and repeated three times. Sensitivity of the cell lines to small molecules inhibitors of Ran was assessed using a concentration range of 0-50 μM.
(§2) Small molecules inhibitors of Ran were dissolved in 100% dimethyl sulfoxide (DMSO) and then further diluted in complete culture media for in vitro experiments. Drugs were added 24 hours after seeding.

[2] = test system: TOV112D cells; test: IncuCyte cell proliferation assay, TOV112D; type: cell-based, human; conditions: 20, 40 and 80 μM, day 4
Protocol: as §1
(§3) Cells (2,000 cells/well) were plated in a 96-well plate. The next day, compounds were added at the indicated concentrations. Following treatment, cell confluence was imaged by phase contrast using the IncuCyte live cell monitoring system (Essen BioScience, Ann Arbor, Mich.). Frames were captured at 2-hour intervals using a 10× objective. For Ran knock down experiments, cells were seeded in a 96-well plate (4,000 cells/well) directly after transfection. Cell confluence monitoring started the next day as described above.
as §2

[3] = test system: ARPE-19 cells; test: IncuCyte cell proliferation assay, ARPE-19; type: cell-based, human; conditions: 20, 40 and 80 μM, day 4
Protocol: as §1, §3, §2

[4] = target: Ran-GTP (Homo sapiens, UniProt P62826); test: Ran-GTP immunofluorescence in TOV112D cells; type: cell-based; conditions: TOV112D cells vs DMSO-treated
Protocol: M36 and R28-treated and control TOV112D cells grown on coverslips were washed with 1×PBS, fixed in 4% paraformaldehyde and permeabilized with 0.25% Triton X-100 (Sigma-Aldrich Inc.). After blocking (4% BSA and 4% FBS in PBS), coverslips were incubated with the monoclonal anti-RanGTP antibody (26915, NewEastBioscences) diluted 1:100 in blocking buffer for 2 hours at room temperature. Subsequently, samples were incubated with Cy-5 secondary antibody (1:500, Life Technologies Inc.) for 1 hour and coverslips were mounted onto slides using Prolong® Gold anti-fade reagent with DAPI (Life Technologies Inc.). Samples were visualized under a Zeiss microscope (Zeiss observer Z1) with a 20× objective.

[5] = test system: prostate cancer cell lines (LNCaP, 22RV1, PC3, DU145); test: Cell proliferation, prostate cancer cell lines; type: cell-based
[6] = test system: breast cancer cell lines (MDA231, MDA468, HCC1806, ZR75, T47D, BT474, HCC1954); test: Cell proliferation, breast cancer cell lines; type: cell-based

- Ran-GTP levels by immunofluorescence [4]: very low levels of active Ran-GTP
Structure (SMILES): COc1ccc(CN2CCN(Cc3ccc(OC)c(N(C(=O)Nc4cccc(F)c4)C(=O)Nc4cccc(F)c4)c3)CC2)cc1 [R28]
- IC50 [1]: 2.99 ± 0.19 µM
- proliferation of TOV112D cells (R20 analogs screen) [2]: more efficient than compound R20 to inhibit proliferation of TOV112D cells
- proliferation of ARPE-19 cells (R20 analogs screen) [3]: without affecting normal ARPE-19 cells
- effect on prostate cancer cell lines [5]: effective in both cancer types
- effect on breast cancer cell lines [6]: effective in both cancer types
